One assay has as its target T1, B1R receptor of the rat (Rattus norvegicus, UniProt P97583).
T1 construct: host or cells: CHO K1 cells (Chinese hamster ovary), stably transfected
T1 sequence (P97583 1-337): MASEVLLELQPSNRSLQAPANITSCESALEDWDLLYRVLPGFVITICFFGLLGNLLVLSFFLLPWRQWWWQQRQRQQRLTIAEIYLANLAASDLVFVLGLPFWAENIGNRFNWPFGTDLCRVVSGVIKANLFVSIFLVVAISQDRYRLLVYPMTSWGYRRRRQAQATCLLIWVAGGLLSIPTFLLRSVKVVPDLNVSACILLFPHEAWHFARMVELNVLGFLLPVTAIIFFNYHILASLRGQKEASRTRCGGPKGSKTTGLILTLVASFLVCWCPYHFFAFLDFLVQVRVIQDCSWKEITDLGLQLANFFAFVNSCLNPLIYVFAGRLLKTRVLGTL
In words: Functional study on the bradykinin receptor 1 (B1R), FLIPR Ca2+ assay, rB1R cells. The conditions noted are these: CHO-K1, test substance 10 μM, agonist Des-Arg9-bradykinin 100 nM, % inhibition compared with the maximum achievable inhibition, read-out: B1R Antagonism, rat [10 μM] % Inhibition. The format is cell-based. The method in brief:
(§1)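 FLIPR Ca2+ read-out (Fluo-4, peak fluorescence) in stably transfected CHO K1 cells. Compounds at 10 μM, then 10 min later agonist challenge: human B1R with Lys-Des-Arg9-bradykinin 0.5 nM, rat B1R with Des-Arg9-bradykinin 100 nM; reported as % activation or % of maximal inhibition.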

The test system of assay [1] is formalin-induced pain behavior. The assay is described as follows: Formalin test in the mouse (phase 2, chronic pain component). The format is in vivo. The conditions noted are these: iv, 5 min. before formalin injection, observation 21 to 24 minutes after formalin. As for the experimental part:
The formalin test (Dubuisson, D. and Dennis, S. G., 1977, Pain, 4, 161-174) represents a model for both acute and chronic pain. By means of a single formalin injection into the dorsal side of a rear paw, a biphasic nociceptive reaction is induced in freely mobile test animals; the reaction is detected by observing three behaviour patterns which are clearly distinguishable from one another. The reaction is two-phase: phase 1=immediate reaction (duration up to 10 min., shaking of the paw, licking), phase 2=late reaction (after a rest phase; likewise shaking of the paw, licking; duration up to 60 min.). The 1st phase reflects a direct stimulation of the peripheral nocisensors with high spinal nociceptive input (acute pain phase); the 2nd phase reflects a spinal and peripheral hypersensitization (chronic pain phase). In the studies described here, the chronic pain component (phase 2) has been evaluated. Formalin in a volume of 20 μl and a concentration of 1% is administered subcutaneously into the dorsal side of the right rear paw of each animal. The specific changes in behavior, such as lifting, shaking or licking of the paw (score 3, Dubuisson & Dennis, 1977), are observed and recorded in the observation period of 21 to 24 minutes following the formalin injection. The behaviour of the animals after administration of the substance (n=10 per dose of substance) was compared with a control group which received vehicle (n=10). Based on the quantification of the pain behavior, the action of the substance in the formalin test was determined as the change in percent compared with the control. The ED50 calculations (ED50=mean effective dose) were carried out by regression analysis according to the method of Litchfield and Wilcoxon (Litchfield, J. T., Wilcoxon, J. J., 1949, J. Pharmacol. Exp. Ther. 96, 99-113). The time of administration before the formalin injection was chosen in dependence on the mode of administration of the compounds according to the invention (intravenous: 5 min.).

The target of the next assay is T2, human B1R receptor (Homo sapiens, UniProt P46663).
T2 construct: host or cells: CHO K1 cells (Chinese hamster ovary), stably transfected
T2 sequence (P46663 1-353): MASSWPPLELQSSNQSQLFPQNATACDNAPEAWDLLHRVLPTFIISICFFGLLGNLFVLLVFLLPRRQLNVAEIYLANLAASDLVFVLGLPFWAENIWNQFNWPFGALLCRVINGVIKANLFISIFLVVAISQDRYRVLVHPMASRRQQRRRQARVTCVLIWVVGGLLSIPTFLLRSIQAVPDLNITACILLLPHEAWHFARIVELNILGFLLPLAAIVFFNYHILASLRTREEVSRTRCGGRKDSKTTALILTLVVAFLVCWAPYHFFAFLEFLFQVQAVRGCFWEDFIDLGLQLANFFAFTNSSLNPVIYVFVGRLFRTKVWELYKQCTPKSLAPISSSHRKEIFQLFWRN
The assay is described as follows: Functional study on the bradykinin receptor 1 (B1R), FLIPR Ca2+ assay, hB1R cells. It counts as cell-based. The following applies: CHO-K1, test substance 10 μM, agonist Lys-Des-Arg9-bradykinin 0.5 nM, % inhibition compared with the maximum achievable inhibition, read-out: B1R Antagonism, human [10 μM] % Inhibition. The method in brief:
as §1

Take `COc1cc(C)c(S(=O)(=O)N2CCCCC2COCC(=O)N2CCN(C3CCN(C)CC3)CC2)c(C)c1.Cl.Cl` (stereo not drawn) [Example 97, 2-((1-(4-methoxy-2,6-dimethylphenylsulfonyl)piperidin-2-yl)methoxy)-1-(4-(1-methylpiperidin-4-yl)piperazin-1-yl)ethanone dihydrochloride]: the inhibition – broadly, the change of the read-out against control, counted positive when it falls – at 10 µM on B1R receptor of the rat worked out at 98.2%; on human B1R receptor, 98%. In assay [1], the ED50 – broadly, the midpoint of the dose-response relation – amounted to 13.3 mg/kg.
For `COc1cc(C)c(S(=O)(=O)N2CCCCC2COCC(=O)N2CCC(N3CCN4CCCCC4C3)CC2)c(C)c1` (stereo not drawn) [Example 98, 1-(4-(dihydro-1H-pyrido[1,2-a]pyrazin-2(6H,7H,8H,9H,9aH)-yl)piperidin-1-yl)-2-((1-(4-methoxy-2,6-dimethylphenylsulfonyl)piperidin-2-yl)methoxy)ethanone], the inhibition at 10 µM amounted to 101% on B1R receptor of the rat and 104% on human B1R receptor. This compound had an ED50 in assay [1] of 13.6 mg/kg.
For `COc1cc(C)c(S(=O)(=O)N2CCCCC2COCC(=O)N(C)Cc2ccc(C3=NCCN3)cc2)c(C)c1.Cl` (stereo not drawn) [Example 193, N-(4-(4,5-dihydro-1H-imidazol-2-yl)benzyl)-2-((1-(4-methoxy-2,6-dimethylphenylsulfonyl)piperidin-2-yl)methoxy)-N-methylacetamide hydrochloride], in that order: 98.3%, 104% and 2.59 mg/kg.
For `COc1cc(C)c(S(=O)(=O)N2CCCCC2COCC(=O)N2CCN(CCn3c(C)ccc3C)CC2)c(C)c1` (stereo not drawn) [Example 559, 1-(4-(2-(2,5-dimethyl-1H-pyrrol-1-yl)ethyl)piperazin-1-yl)-2-((1-(4-methoxy-2,6-dimethylphenylsulfonyl)piperidin-2-yl)methoxy)ethanone], the inhibition at 10 µM came out at 100% on B1R receptor of the rat and 99.9% at human B1R receptor.
For `O=C(COCC1CCCN1S(=O)(=O)c1c(Cl)cccc1Cl)N1CCN(Cc2ccc(Cl)c(Cl)c2)CC1` (stereo not drawn) [Example 357, 1-(4-(3,4-dichlorobenzyl)piperazin-1-yl)-2-((1-(2,6-dichlorophenylsulfonyl)pyrrolidin-2-yl)methoxy)ethanone], in that order: 104% and 79.4%.
As to `COc1cc(C)c(S(=O)(=O)N2CCCCC2COCC(=O)NCC2CCN(Cc3ccccc3)C2)c(C)c1` (stereo not drawn) [Example 414, N-((1-benzylpyrrolidin-3-yl)methyl)-2-((1-(4-methoxy-2,6-dimethylphenylsulfonyl)piperidin-2-yl)methoxy)acetamide], the inhibition at 10 µM on B1R receptor of the rat was determined as 100%; at human B1R receptor, 101%.

Values taken from patent US8435978B2, “Substituted sulfonamide compounds” (Gruenenthal GmbH, priority 2006, dated 2013).
